Measured values taken from the supplement of paper PMC10307832.

Assays:
Experiment in all cases: relative viability (nuclei count vs DMSO), 5 days (fraction); higher = more cells survive
RO-3306 + OSI-027 = compound: C1=CC2=C(C=CC(=C2)C=C3C(=O)NC(=NCC4=CC=CS4)S3)N=C1 [RO-3306] + COc1cccc2cc(-c3nc([C@H]4CC[C@H](C(=O)O)CC4)n4ncnc(N)c34)[nH]c12 [OSI-027] (partner 0.5 µM)
Procedure, shortened: (§1)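 Relative viability equals treated-well nuclei counts divided by vehicle-well nuclei counts. Counts came from 4× images of lung cancer cell lines grown in 1536-well plates for 5 days after pin-tool dosing on the day after seeding. Dosing used one drug alone or a fixed anchor-drug dose plus five library-drug doses (not always all listed) in √10 steps, and values are medians of duplicate plates.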

RO-3306 + Vorinostat = compound: C1=CC2=C(C=CC(=C2)C=C3C(=O)NC(=NCC4=CC=CS4)S3)N=C1 [RO-3306] + O=C(CCCCCCC(=O)Nc1ccccc1)NO [Vorinostat] (partner 1 µM)
Procedure, shortened: as §1

[1] = compound: O=S(=O)(c1ccccc1)N(CC(F)(F)F)c1ccc(C(O)(C(F)(F)F)C(F)(F)F)cc1 + COc1cc2c(Oc3ccc(NC(=O)C4(C(=O)Nc5ccc(F)cc5)CC4)cc3F)ccnc2cc1OCCCN1CCOCC1 [Foretinib] (partner 0.25 µM)
Procedure, shortened: as §1

[2] = compound: O=S(=O)(c1ccccc1)N(CC(F)(F)F)c1ccc(C(O)(C(F)(F)F)C(F)(F)F)cc1 + CS(=O)(=O)N1CCN(Cc2cc3nc(-c4cccc5[nH]ncc45)nc(N4CCOCC4)c3s2)CC1 [Pictilisib] (partner 1 µM)
Procedure, shortened: as §1

[3] = compound: O=S(=O)(c1ccccc1)N(CC(F)(F)F)c1ccc(C(O)(C(F)(F)F)C(F)(F)F)cc1 + O=C(c1cc(Cc2n[nH]c(=O)c3ccccc23)ccc1F)N1CCN(C(=O)C2CC2)CC1 [Olaparib] (partner 8 µM)
Procedure, shortened: as §1

| Cell Line | relative viability (RO-3306 + OSI-027; first compound 0.01 µM) | relative viability (RO-3306 + OSI-027; first compound 0.03162 µM) | relative viability (RO-3306 + OSI-027; first compound 0.1 µM) | relative viability (RO-3306 + OSI-027; first compound 0.3162 µM) | relative viability (RO-3306 + OSI-027; first compound 1 µM) | relative viability (RO-3306 + Vorinostat; first compound 0.01 µM) | relative viability (RO-3306 + Vorinostat; first compound 0.03162 µM) | relative viability (RO-3306 + Vorinostat; first compound 0.1 µM) | relative viability (RO-3306 + Vorinostat; first compound 0.3162 µM) | relative viability (RO-3306 + Vorinostat; first compound 1 µM) | relative viability ([1]; first compound 0.8 µM) | relative viability ([1]; first compound 2.53 µM) | relative viability ([1]; first compound 8 µM) | relative viability ([2]; first compound 0.8 µM) | relative viability ([2]; first compound 2.53 µM) | relative viability ([2]; first compound 8 µM) | relative viability ([3]; first compound 0.8 µM) | relative viability ([3]; first compound 2.53 µM) | relative viability ([3]; first compound 8 µM) |
| --- | --- | --- | --- | --- | --- | --- | --- | --- | --- | --- | --- | --- | --- | --- | --- | --- | --- | --- | --- |
| NCI-H2347 | 0.449 | 0.404 | 0.421 | 0.249 | 0.356 | 0.539 | 0.541 | 0.51 | 0.532 | 0.701 | 1.2 | 0.996 | 0.683 | 0.516 | 0.597 | 0.81 | 0.566 | 0.522 | 0.572 |
| NCI-H2405 | 0.609 | 0.591 | 0.629 | 0.614 | 0.626 | 1.01 | 0.949 | 0.968 | 0.916 | 0.231 | 1.14 | 1.05 | 0.979 | 0.471 | 0.455 | 0.418 | 0.846 | 0.819 | 0.777 |
| NCI-H3122 | 1.11 | 0.849 | 1.03 | 1.03 | 1.01 | 1.07 | 0.825 | 0.993 | 1.19 | 1.06 | 0.891 | 0.792 | 1.05 | 0.477 | 0.447 | 0.416 | 0.678 | 0.599 | 0.654 |
| PC-3 [JPC-3] | 0.851 | 0.718 | 0.787 | 0.681 | 0.741 | 0.649 | 0.629 | 0.648 | 0.735 | 0.524 | 1.1 | 0.983 | 0.951 | 0.737 | 0.829 | 0.697 |  | 1.09 | 1.1 |
